The text below walks through data of patent publication US11162937B2, “Patient selection method for inflammation” (Purdue Research Foundation, priority 2013, dated 2021).

Series [1] concerns ApoE−/− mice. Kind of series: Atherosclerosis in ApoE−/− mice on high fat diet: ^99mTc-EC20 radioimaging and aortic histology under therapy. The format is in vivo. The method, then:
Five week old male ApoE−/− mice were purchased from Jackson Laboratories and placed on an adjusted calorie diet (42% from fat, Harlan Laboratories). Healthy control mice (C57BL/6) were similarly maintained on normal chow. Mice were divided into therapy groups (n=5). Healthy mice and disease control mice received 100 μL saline daily by oral gavage. Diseased mice were treated daily with valsartan (1 mg/kg), or fluvastatin (3 mg/kg) by oral gavage. After three weeks of treatment, mice were imaged with 300 μCi ^99mTc-EC20. Mice were again imaged with ^99mTc-EC20 after 12 weeks of therapy and then euthanized by CO2 asphyxiation. Aortas were dissected and H&E and oil red O staining was performed.
(§1) ^99mTc-EC20 was prepared as previously described in C.
The ability to predict response to therapy might be most useful when applied to treatment of inflammatory/autoimmune diseases that are either intrinsically difficult to monitor or slow to respond to therapeutic intervention. Because atherosclerosis suffers from both disadvantages due to its inaccessible location and slow rate of progression, ^99mTc-EC20 was analyzed to determine if it might be effective in predicting response to therapy in a common murine model of heart disease. […] After 3 weeks of daily treatment, when no morphological symptoms of heart disease could be detected, mice were anesthetized and imaged with ^99mTc-EC20.

Series [2] concerns ApoE−/− mice. To be noted: prior finding; cited from earlier work.
In series [3] the test system is CIA mice. To be noted: prior finding; cited from earlier work.
Series [4] deals with mice with ulcerative colitis. Kind of series: DSS-induced ulcerative colitis mice: ^99mTc-EC20 radioimaging of colon, clinical score and colon length under therapy. The class given is in vivo. To be noted: for clinical scores compared to disease control mice / colon shortening compared to disease control mice: after 8 days of continuous therapy; for clinical scores or colon lengths relative to saline-treated mice / ^99mTc-EC20 uptake in colon relative to saline-treated mice: day 4 of therapy; for ^99mTc-EC20 uptake in colon relative to saline-treated mice: 150 μCi ^99mTc-EC20; for ^99mTc-EC20 radioimages compared with the earlier time point (day 4): day 8 of therapy. The method, then: Ulcerative colitis was induced as previously described in S. Wirtz, C. […] Nat Protoc. 2, 541-546 (2007), incorporated herein by reference. Seven week old Balb/c mice (Harlan Laboratories) maintained on a folate-deficient diet were administered 5% dextran sodium sulfate (DSS) in their drinking water. Mice were divided into treatment groups (n=10 per group). Healthy mice and disease control mice received 100 μL saline daily by oral gavage. Diseased mice were treated daily with cimetidine (100 mg/kg) or sulphasalazine (150 mg/kg) by oral gavage. Healthy mice were maintained on normal water and similarly treated with saline. Disease symptoms were assessed daily and quantitated by adding the scores from each of the following tests: Weight loss: 0=no weight loss, 1=1-5% weight loss, 2=6-10% weight loss, 3=11-15% weight loss, 4=>15% weight loss; Stool appearance: 0=normal, 1=loose feces, 2=diarrhea; Hematochezia (blood in stool): 0=no blood, 1=positive via guaiac paper, 2=visually bloody; Overall appearance: 0=normal, 1=ruffled fur/altered gait, 2=lethargic, moribund. On day 4 of therapy, half of each treatment group (n=5) received an intraperitoneal injection of ^99mTc-EC20. After 4 hours, the injected mice were euthanized and the bladder and kidneys were removed to reduce background radiation associated with ^99mTc-EC20 undergoing excretion. Mice were then imaged to assess uptake of ^99mTc-EC20 in the colon, and the colons were removed and measured with calipers to evaluate colon shortening as a measure of disease severity. On day 8, the remaining mice were injected with ^99mTc-EC20 and analyzed similarly.
(§2) ^99mTc-EC20 was prepared as previously described in C. P. Leamon, M. A. Parker, I. R. Vlahov, L. Xu, J. A. Reddy, M. Vetzel, N. Douglas, Synthesis and Biological Evaluation of EC20: A New Folate-Derived, ^99mTc-Based Radiopharmaceutical. Bioconjugate Chem. 13, 1200-1210 (2002), incorporated herein by reference. A preparation method for ^99mTc-EC20 is also described in U.S. Pat. No. 7,128,893, incorporated herein by reference. Briefly, 1 mL of 15 mCi/mL sodium pertechnetate (Cardinal Health) was added to 0.1 mg of EC20 (a gift from Endocyte, Inc.) and heated at 100° C. for 18 min. After diluting with saline, 100 μL ^99mTc-EC20 (150 μCi (˜75 nmol of EC20 per kilogram for CIA, ulcerative colitis and pulmonary fibrosis mice) or 300 μCi (˜150 nmol of EC20 per kilogram for atherosclerosis)) was injected intraperitoneally into the desired mice, and unbound ^99mTc-EC20 was allowed to clear from tissues for 4 h. Mice were then either anesthetized with 3% isoflurane (CIA, atherosclerosis, and pulmonary fibrosis mice) or euthanized (ulcerative colitis mice) prior to image acquisition using a Kodak Image Station operated with Kodak molecular imaging software (version 4.5; Carestream Molecular Imaging). Radioimages were acquired for 2 minutes using a radioisotopic phosphor screen, no illumination source, 4×4 binning, focal plane=5, FOV=160, and f-stop=0. White light images were acquired for 0.175 seconds with white light transillumination source, no binning, focal plane=5, FOV=160, and f-stop=11.
Mice (n=10/group) were administered 5% dextran sulfate sodium (DSS) in water to induce ulcerative colitis and then treated daily with cimetidine, sulphasalazine or saline (disease control). Then on day 4, half of the mice (n=5/group) were injected with 150 μCi ^99mTc-EC20 and euthanized in preparation for subsequent imaging of their colons.

Series [5] relates to macrophage accumulation. In words: Flow cytometric analysis (F480-PE) of macrophage accumulation in large intestine of ulcerative colitis mice. The format is in vivo. To be noted: after 4 days of treatment, F480-PE flow cytometry. The method, then:
Ulcerative colitis was induced as described. Seven week old Balb/c mice (Harlan Laboratories) maintained on a folate-deficient diet were administered 5% dextran sodium sulfate (DSS) in their drinking water. Healthy control mice were maintained on normal water. Mice were divided into treatment groups (n=3 per group). Healthy mice and disease control mice received 100 μL saline daily by oral gavage. Diseased mice were treated daily with cimetidine (100 mg/kg) or sulphasalazine (150 mg/kg) by oral gavage. After 4 days of treatment, mice were euthanized and large intestines were removed. Equal weights of the large intestines were digested and made into single cell suspensions. Cells were included with mouse macrophage marker F480-PE and analyzed by flow cytometry.

Series [6] relates to CIA mice. In words: Collagen-induced arthritis (CIA) mice: ^99mTc-EC20 radioimaging, arthritis score and paw thickness under anti-inflammatory therapy. The conditions noted are these: for disease symptoms (arthritis score, paw swelling) relative to disease control / uptake of ^99mTc-EC20 in the affected appendages relative to disease control: day 3 of therapy; for uptake of ^99mTc-EC20 in the affected appendages relative to disease control: 150 μCi ^99mTc-EC20 i.p., imaged after 4 h. The method, then:
Collagen-induced arthritis (CIA) was initiated using established methods on 6-7 week old female DBA/1 mice (Jackson Laboratories) maintained on folate-deficient diet (Harlan-Teklad). Briefly, mice were immunized at the base of the tail with 100 μg bovine type II collagen emulsified in complete Freund's adjuvant (Chondrex, Inc., Redmond, Wash., USA). Mice were then boosted 21 days later with a similar injection of 100 μg bovine type II collagen emulsified in incomplete Freund's adjuvant. After four days, onset of arthritis was synchronized in all mice with an intraperitoneal injection of 25 μg lipopolysaccharide (LPS) dissolved in saline. Three days later mice were distributed equally across control and treatment groups (n=5). Healthy mice and disease control mice received daily intraperitoneal injections of 100 μL saline. […] Arthritis scores were assessed every other day by researchers blinded to the various treatment groups, using the following scoring system: 0=normal; 1=mild, but definite redness and swelling of the ankle or wrist, or apparent redness and swelling limited to individual digits, regardless of the number of affected digits; 2=moderate redness and swelling of ankle or wrist; 3=severe redness and swelling of the entire paw including digits; 4=maximally inflamed limb with involvement of multiple joints. A total score for each mouse was calculated by summing the scores for each of the four paws, allowing a maximum possible score of 16 per animal. Paw thickness was measured with calipers every other day starting on the first day of treatment. On day 3 of treatment, mice were anesthetized with isoflurane and imaged with ^99mTc-EC20 as described below. Mice were again imaged and then euthanized by CO2 asphyxiation on day 11 of treatment.
as §2
Mice were induced to develop collagen-induced arthritis (CIA, a well-established model of rheumatoid arthritis) and subjected 28 days later to treatment with methotrexate, dexamethasone or saline (disease control). Three days after initiation of therapy, the mice were injected with 150 μCi of ^99mTc-EC20 and subjected to their first planned radioimage analysis.

Series [7] concerns mice with pulmonary fibrosis. Kind of series: Bleomycin-induced pulmonary fibrosis mice: ^99mTc-EC20 radioimaging, BAL cell count, lung hydroxyproline, H&E. The class given is in vivo. Here is the method:
Pulmonary fibrosis was induced in mice as previously described in B. B. Moore, C. M. Hogaboam, Murine models of pulmonary fibrosis. Am J Physiol Lung Cell Mol Physiol. 294, L152-160 (2008), incorporated herein by reference. Briefly, 6 week old female C57BL/6 mice (Harlan Laboratories) maintained on a folate-deficient diet were anaesthetized with isoflurane, and 50 μL of bleomycin (2 U/kg body weight) dissolved in saline was intratracheally instilled into each mouse. Healthy control mice were similarly intratracheally instilled with 50 μL saline. Mice were then separated into treatment groups (n=5). […] Diseased mice were injected every day intraperitoneally with dexamethasone (0.5 mg/kg) or etanercept (300 μg). Mice were imaged with ^99mTc-EC20 after 6 days of treatment and again after 15 days of treatment. Mice were then euthanized by CO2 asphyxiation and bronchoalveolar lavage fluid was collected and cells were counted using a Beckman Coulter Z™ Series COULTER COUNTER® Cell and Particle Counter. The left lung was fixed in formalin and submitted to the Purdue Histology & Phenotyping Laboratory for H&E staining and the right lung was used for analysis of hydroxyproline content using a hydroxyproline assay kit from Sigma-Aldrich (St. Louis, Mo.).
as §1
Since pulmonary fibrosis is thought to be primarily driven by M2 macrophages, C57BL/6 mice were induced to develop an acute form of lung fibrosis by intratracheal instillation of bleomycin. Immediately following disease induction, mice were treated daily with intraperitoneal injections of dexamethasone, etanercept, or saline, and then imaged with ^99mTc-EC20 six days later.

Regarding `CCCCC(=O)N(Cc1ccc(-c2ccccc2-c2nnn[nH]2)cc1)[C@H](C(=O)O)C(C)C` [valsartan], the “^99mTc-EC20 uptake in chest cavities relative to saline-treated mice” value in series [1] (after 3 weeks of daily treatment) is listed as “significantly less”. Moreover, the “aortic wall thickening relative to saline-treated mice” value in series [1] (after 12 weeks of daily therapy, H&E) was “significantly reduced”. Moreover, the “plaque formation in murine models of atherosclerosis (have been shown)” value in series [2] is given as “reduce plaque formation”.

As for `COc1ccc2cc([C@H](C)C(=O)O)ccc2c1` [naproxen], the “efficacy in the CIA model of arthritis in mice (previously found)” value in series [3] was “little efficacy”.

Take `O=C(O)c1cc(/N=N/c2ccc(S(=O)(=O)Nc3ccccn3)cc2)ccc1O` [sulphasalazine]: in series [4], the “clinical scores compared to disease control mice” value is on record as “significantly lower”, the “colon shortening compared to disease control mice” value is “reduced colon shortening”, the “clinical scores or colon lengths relative to saline-treated mice” value was “no significant difference” and the “^99mTc-EC20 uptake in colon relative to saline-treated mice” value is listed as “significantly less”. In series [4], the “^99mTc-EC20 radioimages compared with the earlier time point (day 4)” value is “essentially unchanged”. Further, the “macrophage accumulation in large intestine compared to the disease control group” value in series [5] is on record as “reduced macrophage accumulation”.

As for `CN(Cc1cnc2nc(N)nc(N)c2n1)c1ccc(C(=O)N[C@@H](CCC(=O)O)C(=O)O)cc1` [methotrexate], in series [6] (CIA mice), the “disease symptoms (arthritis score, paw swelling) relative to disease control” value is recorded as “no reduction” and the “uptake of ^99mTc-EC20 in the affected appendages relative to disease control” value is given as “markedly less”. Besides, in series [6] (CIA mice, day 11 of therapy), the “disease symptoms / joint inflammation (arthritis score, paw thickness) relative to disease control” value was “substantially resolved” and the “uptake of ^99mTc-EC20 (radioimages)” value is listed as “significantly reduced uptake”.

Turning to `CN/C(=N/CCSCc1nc[nH]c1C)NC#N` [cimetidine], in series [4], the “clinical scores compared to disease control mice” value is “significantly lower”, the “colon shortening compared to disease control mice” value was “reduced colon shortening”, the “clinical scores or colon lengths relative to saline-treated mice” value is reported as “no significant difference” and the “^99mTc-EC20 uptake in colon relative to saline-treated mice” value is “significantly less”. Also, the “^99mTc-EC20 radioimages compared with the earlier time point (day 4)” value in series [4] is recorded as “essentially unchanged”. Also, in series [5], the “macrophage accumulation in large intestine compared to the disease control group” value was “reduced macrophage accumulation”.

For etanercept, in series [6] (CIA mice), the “disease symptoms (arthritis score, paw swelling) relative to disease control” value is “no significant difference” and the “uptake of ^99mTc-EC20 in the affected appendages relative to disease control” value was “significantly less uptake”. For the same compound, the “disease symptoms / joint inflammation (arthritis score, paw thickness) relative to disease control” value in series [6] (CIA mice, day 11 of therapy) is “significantly reduced inflammation”. In series [7] (day 15 of treatment), the “fibrosis by H&E analysis of the lungs” value is reported as “reduced fibrosis”, the “hydroxyproline contents in resected lung tissues compared to saline-treated controls” value is listed as “reduced hydroxyproline contents” and the “total cell counts in bronchoalveolar lavage fluids compared to saline-treated controls” value was “decreased total cell counts”. In addition, the “accumulation of ^99mTc-EC20 compared to saline-treated disease controls” value in series [7] (six days of treatment) is “decreased accumulation”.

Take `Nc1nc2ncc(CNc3ccc(C(=O)N[C@H](CCC(=O)NC[C@@H]4[NH][99Tc]56(=[O])[S]C[C@@H](C(=O)O)[N]5C(=O)[C@H](CC(=O)O)[N]6C4=O)C(=O)O)cc3)nc2c(=O)[nH]1` [^99mTc-EC20]: in series [6] (CIA mice not treated with any anti-inflammatory drug, 150 μCi i.p.), the “accumulation of ^99mTc-EC20 in inflamed appendages” value is on record as “exhibited the accumulation of ^99mTc-EC20 in their inflamed appendages”.
